Experimental findings from patent US20160206642A1, “CLOCK GENE EXPRESSION LEVEL REGULATOR” (SUNTORY HOLDINGS LIMITED, priority 2013, published 2016) are described below.

For experiment [1], the system named is Bmal1 clock gene. The experiment can be described thus: Bmal1 clock gene expression in liver of SD rats by quantitative PCR. The format is in vivo. The conditions noted are these: 200 mg/5 mL/kg orally once daily for 5 days, sampled four hours after the last treatment. The procedure: (§1) Seven-week-old male SD rats were habituated for one week and then classified into a test food group (isolated oleuropein group) and a control group (each group consisting of 6 animals). Next, the isolated oleuropein was dissolved in distilled water (produced by Otsuka Pharmaceutical Co., Ltd.), and the solution was orally administered forcibly to the test food group at a dose of 200 mg/5 mL/kg once daily for 5 days. The control food group was orally fed forcibly with distilled water (produced by Otsuka Pharmaceutical Co., Ltd.) at a dose of 5 mL/kg once daily for 5 days. Four hours after the last treatment, liver sampling was done.
(§2) From the liver samples collected, total RNA was extracted according to a conventional method, and used to analyze the expression levels of the Bmal1 and Per1 clock genes by quantitative PCR (with Applied Biosystems 7900HT Fast Real-Time PCR System).

Experiment [2] concerns Per1 clock gene. Nature of the experiment: Per1 clock gene expression in liver of SD rats by quantitative PCR. The format is in vivo. The conditions noted are these: 200 mg/5 mL/kg orally once daily for 5 days, sampled four hours after the last treatment. How it is done: as §1, §2
In experiment [3] the test system is Per1 clock gene. The experiment can be described thus: Per1 clock gene expression in HepG2 cells by qPCR. The format is cell-based, human. The note with it: HepG2, 50 μg/mL, eight hours after addition, DMSO control. How it is done:
(§3) Cultured cells (human liver cancer-derived cell line HepG2) were seeded at 2.5×10^3 cells/cm^2 in a T-75 flask (BD Falcon™), and medium replacement (RPMI1640, 10% FBS) was performed every three days. The cells reaching 80% confluence were passaged at a concentration of 4.2×10^4 cells/mL in a 6-well plate (BD Falcon™), and in order to entrain the phases of the circadian rhythms of the cells, the medium was replaced with a low-serum medium (RPMI1640, 2% FBS) after three days. Three days after the replacement with a low-serum medium, the cells were subjected to testing. A solution of the test substance in DMSO (50 μg/μL) was prepared and added to the 6-well plate to give a final concentration of the test substance of 50 μg/mL. As a control, DMSO was added to the 6-well plate (to give a final concentration of 0.1%).
(§4) Eight hours after the addition of the test substance, the cells were harvested, and mRNA was extracted according to a conventional method. The extracted mRNA was used to analyze the expression levels of the Bmal1 and Per1 clock genes by qPCR (with Applied Biosystems 7900HT Fast Real-Time PCR System).
(Quantitative PCR measures a nucleic acid by following its amplification.)

Experiment [4] has as its system Bmal1 clock gene. The experiment can be described thus: Bmal1 clock gene expression in HepG2 cells by qPCR. The format is cell-based, human. The note with it: HepG2, 50 μg/mL, eight hours after addition, DMSO control. The procedure: as §3, §4

`C/C=C1/[C@H](O[C@@H]2O[C@H](CO)[C@@H](O)[C@H](O)[C@H]2O)OC=C(C(=O)OC)[C@H]1CC(=O)OCCc1ccc(O)c(O)c1` [isolated oleuropein, Oleuropein]: the “Bmal1 expression as compared to the control group” value with Bmal1 clock gene [1] is “significant decrease”. For the same compound, the “Per1 expression as compared to the control group” value with Per1 clock gene [2] is “significant increase”.
In the case of `COC(=O)C1=CO[C@@H](C)[C@@H](C=O)C1CC(=O)OCCc1ccc(O)c(O)c1` (mixture of isomers) [3,4-DHPEA-EA, 3,4-Dihydroxyphenylethanol-elenolic acid], the Per1 expression entry in the experiment with Per1 clock gene [3] is on record as “increasing”. Further, the Bmal1 expression result in the experiment on Bmal1 clock gene [4] was “reduced”.
